Test results reported in patent publication US8716231B2, “Use of benzo-fused heterocycle sulfamide derivatives for the treatment of pain” (Janssen Pharmaceutica NV, priority 2005, dated 2014).

Legend:
[1] = test system: CFA induced thermal hypersensitivity (radiant heat paw withdrawal latency); assay: Complete Freund's Adjuvant (CFA)-induced Model of Inflammatory Pain; format: in vivo, Sprague-Dawley rats; conditions: 560 mg/kg oral; 4 hr after oral administration
Description: Intraplantar injection of CFA in rats results in a long-lasting inflammatory reaction, characterized by edema and a pronounced hypersensitivity to both thermal and mechanical stimuli. This hypersensitivity peaks between 24-72 hours after injection and can last for several weeks. This assay predicts the analgesic, antiallodynic and/or antihyperalgesic effect of test compounds.
Test compound and controls were dissolved in the appropriate volume of 0.5% HPMC or 10% solutol in 0.5% hydoxypropyl methylcellulose (HPMC). Solutions were prepared to provide the final dose in a volume of 2.5 mL/kg or 5 mL/kg p.o. for rats. Male, Sprague-Dawley rats from Charles Rivers Laboratories (Portage, Me.), weighing between 250 and 350 grams at the time of study, were used for the CFA paw radiant heat studies.
Rats in the CFA study were moved to a testing room the day of the CFA injection, where they remained for the duration of the study. […]
On the day of study, rats were given a 100 μL (1 μg/μL) intraplantar injection of CFA (1:1 CFA:saline) into their left hindpaw. […] Percent Reversal of hyperalgesia was calculated for each animal as [(treatment response)−(post-CFA response)]/[(pre-CFA response)−(post-CFA response)]×100. Average % reversal of hyperalgesia was then calculated for each treatment group (n=5-6 rats/group). […]

[2] = test system: acetic acid-induced abdominal stretching; assay: Acetic Acid-induced Abdominal Constriction Model of Visceral Pain; format: in vivo, CD-1 mice; conditions: 560 mg/kg oral; for number of abdominal stretches: not statistically significant (vehicle 13 to 16.2)
Description: The purpose of this assay was to determine whether Compound #8 reverses hypersensitivity in visceral, inflammatory and neuropathic models of pain.
Test compound and controls were dissolved in the appropriate volume of 0.5% HPMC or 10% solutol in 0.5% hydoxypropyl methylcellulose (HPMC). HPMC served as the vehicle for preparation of gabapentin solutions used as the positive control. Solutions were prepared to provide the final dose in a volume of 10 mL/kg orally (p.o.) for mice. Male CD-1 mice from Charles Rivers Laboratories (Portage, Me.), weighing between 25 and 30 grams at the time of study, were used for the acetic acid-induced abdominal stretching studies.
Mice in the acetic acid-induced abdominal stretching study were allowed 1 hr to acclimate to the testing room before the start of the study. Animals were housed in micro-isolator cages in groups of four rats per cage or 5 mice per cage with corncob bedding and free access to food and water. The environment was maintained at a constant temperature of 21° C., with a 12-hour light/dark cycle.
Animals used in the acetic acid-induced abdominal stretching test were maintained with original cage mates throughout the study period (four rats per cage, 5 mice per cage; cages were Nalgene® with corn cob bedding). Animals from several cages were randomly assigned across treatment groups; that is, mice in a given cage were pseudo-randomly assigned to different treatment groups. In all tests, the investigator performing the behavioral analysis was blinded to the treatment administered to any individual animal.
Mice were then given an i.p injection of 0.5 mL (2×0.25 mL/abdominal quadrant) of 0.6% acetic acid following 1 hr, 2 hrs, 3 hrs or 4 hours treatment with vehicle, compound or positive control. Five minutes after i.p acetic acid injection, 5 animals were placed into separate bell jars containing a small amount of bedding chips, and the number of abdominal stretches per animal was recorded for 5 minutes. This was repeated for each group (N=10 mice/group). […]

Row | SMILES | peak reversal of thermal hypersensitivity (compared with the 24-hr post-CFA baseline) [1] [%] | effect on acetic acid-induced stretching ([2]; compared with vehicle- or gabapentin-treated mice) | number of abdominal stretches ([2]; 2 hr after administration) [stretches] | number of abdominal stretches ([2]; 3 hr after administration) [stretches]
1 | NS(=O)(=O)NC[C@H]1COc2cc(Cl)ccc2O1 [Compound #8, (2S)-(−)-N-(6-Chloro-2,3-dihydro-benzo[1,4]dioxin-2-ylmethyl)-sulfamide] | 86.0 | did not significantly modify acetic acid-induced stretching |  | 
2 | NCC1(CC(=O)O)CCCCC1 [gabapentin, reference compound] | 68.6 |  | 11.00±1.5 | 10.0±1.6
